Tests used:
[1] = biological target: T1, human androgen receptor (Homo sapiens, UniProt P10275); assay: Reporter assay of an androgen receptor responsive sequence (luciferase, transiently transfected HEK293 cells); format: cell-based; settings: 24 hours incubation, relative to activity of 100 nM DHT, read-out: AR transcriptive activity (pEC50) (converted)
T1 construct: expressed in transfected cells; host or cells: HEK293
T1 sequence (P10275 1-920): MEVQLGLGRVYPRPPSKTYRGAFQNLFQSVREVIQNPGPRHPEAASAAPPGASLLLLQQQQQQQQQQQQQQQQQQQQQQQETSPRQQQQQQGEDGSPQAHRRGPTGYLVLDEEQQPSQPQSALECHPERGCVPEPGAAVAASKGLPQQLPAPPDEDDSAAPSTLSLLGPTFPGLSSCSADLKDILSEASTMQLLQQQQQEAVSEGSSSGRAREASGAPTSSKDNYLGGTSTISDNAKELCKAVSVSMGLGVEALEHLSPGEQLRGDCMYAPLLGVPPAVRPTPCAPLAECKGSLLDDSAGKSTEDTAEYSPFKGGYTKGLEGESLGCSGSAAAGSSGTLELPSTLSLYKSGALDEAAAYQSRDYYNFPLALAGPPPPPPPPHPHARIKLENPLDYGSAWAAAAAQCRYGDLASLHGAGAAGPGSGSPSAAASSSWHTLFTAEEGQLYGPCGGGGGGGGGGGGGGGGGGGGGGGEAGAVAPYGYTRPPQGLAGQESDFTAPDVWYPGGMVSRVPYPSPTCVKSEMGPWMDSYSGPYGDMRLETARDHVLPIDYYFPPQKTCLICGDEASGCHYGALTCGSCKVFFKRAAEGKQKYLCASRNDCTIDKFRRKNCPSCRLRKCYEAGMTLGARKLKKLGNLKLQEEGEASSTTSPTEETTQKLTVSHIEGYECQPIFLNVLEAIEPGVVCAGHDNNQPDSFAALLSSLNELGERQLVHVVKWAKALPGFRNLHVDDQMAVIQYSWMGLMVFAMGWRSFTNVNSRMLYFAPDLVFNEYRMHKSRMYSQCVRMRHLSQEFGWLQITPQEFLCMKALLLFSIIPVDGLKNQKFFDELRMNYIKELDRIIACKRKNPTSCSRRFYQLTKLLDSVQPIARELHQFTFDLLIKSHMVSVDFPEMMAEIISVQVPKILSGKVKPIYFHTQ
Summary of the method: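 HEK293 cells transiently transfected for 3 h with ARE-firefly luciferase, full-length human AR and TK-Renilla plasmids, then exposed to compound for 24 h at 37 °C in 5% charcoal-treated FBS/DMEM. Dual-Glo luminescence read; pEC50 from 4-parameter fit relative to 100 nM DHT.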

[2] = biological target: T2, androgen receptor (AR-LBD) (Rattus norvegicus, UniProt P15207); assay: Evaluation of androgen receptor affinity (PolarScreen Androgen Receptor Competitor Assay Kit, Red; fluorescence polarization); settings: 22° C. for 5 hours, relative to binding rate of 1 μM DHT, read-out: AR affinity (pEC50) (converted)
T2 construct: 5 μL of 2×AR-LBD/Fluoromone AL Red Complex contained in the kit; purchased Invitrogen
T2 sequence (P15207 651-882 limits assumed): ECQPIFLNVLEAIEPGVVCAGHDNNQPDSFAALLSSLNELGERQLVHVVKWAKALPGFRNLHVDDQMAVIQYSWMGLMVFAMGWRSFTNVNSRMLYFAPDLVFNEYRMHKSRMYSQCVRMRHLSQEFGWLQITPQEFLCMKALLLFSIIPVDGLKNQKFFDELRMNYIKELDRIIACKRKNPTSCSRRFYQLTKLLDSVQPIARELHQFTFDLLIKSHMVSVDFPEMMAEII
Summary of the method: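 Fluorescence polarization read-out after 5 h at 22° C of compound with a red-fluorophore-labelled AR-LBD complex. Displacement is scaled against 1 μM DHT, and the log reciprocal of the concentration reaching half that effect gives pEC50 via four-parameter curve fitting.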

Row | EC50 [1] [nM] | EC50 [2] [nM] | SMILES
1 | 251 | 31.6 | COCCCS(=O)(=O)NC(=O)c1nc(N(CCc2ccc(C#N)cc2)Cc2ccc(Cl)cc2)sc1C [Compound 739, 2-[(4-chlorophenyl)methyl-[2-(4-cyanophenyl)ethyl]amino]-N-(3-methoxypropylsulfonyl)-5-methyl-thiazole-4-carboxamide]
2 | 1000 | 25.1 | COCCCS(=O)(=O)NC(=O)c1nc(N(CCc2ccc(C#N)cc2)Cc2ccc(OC(F)(F)F)cc2)sc1C [Compound 740, 2-[2-(4-cyanophenyl)ethyl-[[4-(trifluoromethoxy)phenyl]methyl]amino]-N-(3-methoxypropylsulfonyl)-5-methyl-thiazole-4-carboxamide]
3 | 158 | 25.1 | Cc1sc(N(CCc2ccc(C#N)cc2)Cc2ccc(Cl)cc2)nc1C(=O)NS(=O)(=O)Cc1ccncc1 [Compound 741, 2-[(4-chlorophenyl)methyl-[2-(4-cyanophenyl)ethyl]amino]-5-methyl-N-(4-pyridylmethylsulfonyl)thiazole-4-carboxamide]
4 | 2000 | 25.1 | Cc1sc(N(CCc2ccc(C#N)cc2)Cc2ccc(OC(F)(F)F)cc2)nc1C(=O)NS(=O)(=O)Cc1ccncc1 [Compound 742, 2-[2-(4-cyanophenyl)ethyl-[[4-(trifluoromethoxy)phenyl]methyl]amino]-5-methyl-N-(4-pyridylmethylsulfonyl)thiazole-4-carboxamide]
5 | 1260 | 316 | Cc1sc(N(Cc2ccccc2)c2ccc3nccnc3c2)nc1C(=O)NS(C)(=O)=O [Compound 744, 2-[benzyl(quinoxalin-6-yl)amino]-5-methyl-N-methylsulfonyl-thiazole-4-carboxamide]
6 | 158 | 50.1 | COCCCS(=O)(=O)NC(=O)c1nc(N(Cc2ccc(OC(F)F)cc2)c2ccc(C#N)cc2)sc1C [Example 165, 2-[4-cyano-N-[[4-(difluoromethoxy)phenyl]methyl]anilino]-N-(3-methoxypropylsulfonyl)-5-methyl-thiazole-4-carboxamide]
7 | 79.4 | 25.1 | COCCCS(=O)(=O)NC(=O)c1nc(N(Cc2ccc(Cl)cc2)c2ccc(C#N)cc2)sc1C [Example 166, 2-[N-[(4-chlorophenyl)methyl]-4-cyano-anilino]-N-(3-methoxypropylsulfonyl)-5-methyl-thiazole-4-carboxamide]
8 | 31.6 | 25.1 | Cc1sc(N(Cc2ccc(C(F)(F)F)c(F)c2)c2ccc(C#N)cc2)nc1C(=O)NS(C)(=O)=O [Example 167, 2-[4-cyano-N-[[3-fluoro-4-(trifluoromethyl)phenyl]methyl]anilino]-5-methyl-N-methylsulfonyl-thiazole-4-carboxamide]
9 | 200 | 100 | Cc1sc(N(Cc2ncc(Cl)cc2F)c2ccc(C#N)cc2)nc1C(=O)NS(C)(=O)=O [Example 168, 2-[N-[(5-chloro-3-fluoro-2-pyridyl)methyl]-4-cyano-anilino]-5-methyl-N-methylsulfonyl-thiazole-4-carboxamide]
10 | 501 | 200 | COCCCS(=O)(=O)NC(=O)c1nc(N(Cc2ncc(Cl)cc2F)c2ccc(C#N)cc2)sc1C [Example 169, 2-[N-[(5-chloro-3-fluoro-2-pyridyl)methyl]-4-cyano-anilino]-N-(3-methoxypropylsulfonyl)-5-methyl-thiazole-4-carboxamide]
11 | 200 | 63.1 | Cc1sc(N(Cc2ncc(C(F)(F)F)cc2F)c2ccc(C#N)cc2)nc1C(=O)NS(C)(=O)=O [Example 170, 2-[4-cyano-N-[[3-fluoro-5-(trifluoromethyl)-2-pyridyl]methyl]anilino]-5-methyl-N-methylsulfonyl-thiazole-4-carboxamide]
12 | 631 | 126 | COCCCS(=O)(=O)NC(=O)c1nc(N(Cc2ncc(C(F)(F)F)cc2F)c2ccc(C#N)cc2)sc1C [Example 171, 2-[4-cyano-N-[[3-fluoro-5-(trifluoromethyl)-2-pyridyl]methyl]anilino]-N-(3-methoxypropylsulfonyl)-5-methyl-thiazole-4-carboxamide]
13 | 31.6 | 31.6 | Cc1sc(N(Cc2ccc(OC(F)F)c(F)c2)c2ccc(C#N)cc2)nc1C(=O)NS(C)(=O)=O [Example 172, 2-[4-cyano-N-[[4-(difluoromethoxy)-3-fluoro-phenyl]methyl]anilino]-5-methyl-N-methylsulfonyl-thiazole-4-carboxamide]
14 | 79.4 | 25.1 | Cc1sc(N(Cc2ccc(F)c(C(F)(F)F)c2)c2ccc(C#N)cc2)nc1C(=O)NS(C)(=O)=O [Example 173, 2-[4-cyano-N-[[4-fluoro-3-(trifluoromethyl)phenyl]methyl]anilino]-5-methyl-N-methylsulfonyl-thiazole-4-carboxamide]
15 | 316 | 100 | Cc1sc(N(Cc2cc(F)cc3cccnc23)c2ccc(C#N)cc2)nc1C(=O)NS(C)(=O)=O [Example 174, 2-[4-cyano-N-[(6-fluoro-8-quinolyl)methyl]anilino]-5-methyl-N-methylsulfonyl-thiazole-4-carboxamide]
16 | 126 | 79.4 | Cc1sc(N(Cc2ccc(F)c3cccnc23)c2ccc(C#N)cc2)nc1C(=O)NS(C)(=O)=O [Example 175, 2-[4-cyano-N-[(5-fluoro-8-quinolyl)methyl]anilino]-5-methyl-N-methylsulfonyl-thiazole-4-carboxamide]
17 | 501 | 63.1 | Cc1sc(N(Cc2ccc(F)cc2OC(F)F)c2ccc(C#N)cc2)nc1C(=O)NS(C)(=O)=O [Example 176, 2-[4-cyano-N-[[2-(difluoromethoxy)-4-fluoro-phenyl]methyl]anilino]-5-methyl-N-methylsulfonyl-thiazole-4-carboxamide]
18 | 501 | 79.4 | Cc1sc(N(Cc2ccc(F)cc2Br)c2ccc(C#N)cc2)nc1C(=O)NS(C)(=O)=O [Example 177, 2-[N-[(2-bromo-4-fluoro-phenyl)methyl]-4-cyano-anilino]-5-methyl-N-methylsulfonyl-thiazole-4-carboxamide]
19 | 501 | 39.8 | Cc1sc(N(Cc2ccc(OC(F)(F)F)cc2F)c2ccc(C#N)cc2)nc1C(=O)NS(C)(=O)=O [Example 178, 2-[4-cyano-N-[[2-fluoro-4-(trifluoromethoxy)phenyl]methyl]anilino]-5-methyl-N-methylsulfonyl-thiazole-4-carboxamide]
20 | 1000 | 501 | Cc1sc(N(Cc2ncc(F)cc2Cl)c2ccc(C#N)cc2)nc1C(=O)NS(C)(=O)=O [Example 179, 2-[N-[(3-chloro-5-fluoro-2-pyridyl)methyl]-4-cyano-anilino]-5-methyl-N-methylsulfonyl-thiazole-4-carboxamide]
21 | 501 | 251 | Cc1sc(N(Cc2ncc(Cl)cc2Cl)c2ccc(C#N)cc2)nc1C(=O)NS(C)(=O)=O [Example 180, 2-[4-cyano-N-[(3,5-dichloro-2-pyridyl)methyl]anilino]-5-methyl-N-methylsulfonyl-thiazole-4-carboxamide]
22 | 25.1 | 31.6 | Cc1sc(N(Cc2ccc(Br)c(F)c2)c2ccc(C#N)cc2)nc1C(=O)NS(C)(=O)=O [Example 181, 2-[N-[(4-bromo-3-fluoro-phenyl)methyl]-4-cyano-anilino]-5-methyl-N-methylsulfonyl-thiazole-4-carboxamide]
23 | > 10000 | 631 | Cc1sc(N(Cc2ccc(Br)cc2C#N)c2ccc(C#N)cc2)nc1C(=O)NS(C)(=O)=O [Example 182, 2-[N-[(4-bromo-2-cyano-phenyl)methyl]-4-cyano-anilino]-5-methyl-N-methylsulfonyl-thiazole-4-carboxamide]
